Measurements published in ChEMBL document CHEMBL1201862, “PubChem BioAssay data set” (2004).
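Five compound concentrations were applied to cells in 96-well plates for 48 hours; endpoints were derived by simple linear interpolation of the resulting dose-response curve. Here, GI50 denotes the concentration required for 50% inhibition of growth.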 Active and inactive are the calls of the source. No stated cut-off is given here; in the data, active = GI50 up to about 1.1 µM and inactive = higher.

How the values were obtained:
Experiment in all cases: NCI-60 cell line screen, 48 h
[1] = tested on: A498
[2] = tested on: HL-60
[3] = tested on: OVCAR-3
[4] = tested on: IGROV-1
[5] = tested on: ACHN
[6] = tested on: DLD-1
[7] = tested on: RXF 393
[8] = tested on: OVCAR-4
[9] = tested on: HCC 2998
[10] = tested on: HCT-116
[11] = tested on: HOP-62
[12] = tested on: M14
[13] = tested on: UACC-257
[14] = tested on: M19-MEL
[15] = tested on: SK-MEL-2
[16] = tested on: MOLT-4
[17] = tested on: 786-0
[18] = tested on: Malme-3M
[19] = tested on: NCI-H522
[20] = tested on: HOP-92
[21] = tested on: NCI-H23
[22] = tested on: HCT-15
[23] = tested on: OVCAR-8
[24] = tested on: SK-MEL-28
[25] = tested on: XF498
[26] = tested on: DMS-273
[27] = tested on: A549
[28] = tested on: K562
[29] = tested on: HT-29
[30] = tested on: CCRF-CEM
[31] = tested on: NCI-H226
[32] = tested on: NCI-H460
[33] = tested on: SF-268
[34] = tested on: OVCAR-5
[35] = tested on: SN12C
[36] = tested on: KM12
[37] = tested on: SF-295
[38] = tested on: RPMI-8226
[39] = tested on: SR
[40] = tested on: TK-10
[41] = tested on: LOX IMVI
[42] = tested on: SK-MEL-5
[43] = tested on: SNB-78
[44] = tested on: CAKI-1
[45] = tested on: UO-31
[46] = tested on: SNB-75
[47] = tested on: SF-539
[48] = tested on: SK-OV-3
[49] = tested on: SW-620
[50] = tested on: LXFL 529
[51] = tested on: U-251
[52] = tested on: SNB-19
[53] = tested on: UACC-62
[54] = tested on: DMS-114

SMILES: O=[N+]([O-])c1ccccc1[S+]([O-])c1ccccc1 (centres undefined)
- GI50 [1]: 63.2 µM (inactive)
- GI50 [2]: 27.7 µM (inactive)
- GI50 [3]: 73.8 µM (inactive)
- GI50 [4]: 68.2 µM (inactive)
- GI50 [5]: 69.7 µM (inactive)
- GI50 [6]: 71 µM (inactive)
- GI50 [7]: 84.1 µM (inactive)
- GI50 [8]: 49.2 µM (inactive)
- GI50 [9]: 97.7 µM (inactive)
- GI50 [10]: 57.9 µM (inactive)
- GI50 [11]: > 100 µM (inactive)
- GI50 [12]: > 100 µM (inactive)
- GI50 [13]: 20.7 µM (inactive)
- GI50 [14]: 21.3 µM (inactive)
- GI50 [15]: > 100 µM (inactive)
- GI50 [16]: 57 µM (inactive)
- GI50 [17]: > 100 µM (inactive)
- GI50 [18]: > 100 µM (inactive)
- GI50 [19]: 65.6 µM (inactive)
- GI50 [20]: 71 µM (inactive)
- GI50 [21]: 44.5 µM (inactive)
- GI50 [22]: 38.7 µM
- GI50 [23]: > 100 µM (inactive)
- GI50 [24]: > 100 µM (inactive)
- GI50 [25]: > 100 µM (inactive)
- GI50 [26]: 47.2 µM (inactive)
- GI50 [27]: 52.8 µM (inactive)
- GI50 [28]: 35.1 µM (inactive)
- GI50 [29]: 62.7 µM (inactive)
- GI50 [30]: 47.8 µM (inactive)
- GI50 [31]: 49.9 µM (inactive)
- GI50 [32]: 53 µM (inactive)
- GI50 [33]: 77.6 µM (inactive)
- GI50 [34]: > 100 µM (inactive)
- GI50 [35]: 75.5 µM (inactive)
- GI50 [36]: 87.9 µM (inactive)
- GI50 [37]: 90.8 µM (inactive)
- GI50 [38]: 52.5 µM (inactive)
- GI50 [39]: 71.8 µM (inactive)
- GI50 [40]: > 100 µM (inactive)
- GI50 [41]: 21.1 µM (inactive)
- GI50 [42]: 36.8 µM (inactive)
- GI50 [43]: 56.9 µM (inactive)
- GI50 [44]: 60.4 µM (inactive)
- GI50 [45]: 63.5 µM (inactive)
- GI50 [46]: 22.1 µM (inactive)
- GI50 [47]: 70.6 µM (inactive)
- GI50 [48]: > 100 µM (inactive)
- GI50 [49]: > 100 µM (inactive)
- GI50 [50]: > 100 µM (inactive)
- GI50 [51]: 41.2 µM (inactive)
- GI50 [52]: 87.3 µM (inactive)
- GI50 [53]: > 100 µM (inactive)
- GI50 [54]: 22.1 µM (inactive)
